# According to patent US11358939B2, “1,4-benzodiazepin-2-one derivatives and use thereof” (priority 2017, dated 2022):
# How the values were obtained:
# Format in all cases: in vivo
# [1] = system: writhes induced by intraperitoneal acetic acid; experiment: Analgesic activity, acetic acid-induced writhing test (peripheral pain model); settings: compounds Ib, 1 mg/kg intraperitoneally, 40 min before 0.75% acetic acid
# Procedure: Assessment of analgesic activity was performed in a model of peripheral pain based on chemical pain induced by intraperitoneal administration of acetic acid, leading to involuntary contractions of abdominal muscles, termed “writhes”, accompanied by hind leg extension and spine arching. The writhes were induced by 0.75% solution of acetic acid, which was administered intraperitoneally 40 min after intraperitoneal administration of test compounds in 0.001-5 mg/kg dose range. […] Analgesic activity was assessed by the ability of the compounds to reduce the number of writhes in test group compared to control group, and indicated as percentage using the following formula: AA=(Wc−Wt/Wc)×100%,
# where AA—analgesic activity in %;
# Wc—average number of writhes in control group;
# Wt—average number of writhes in test group
# Test compounds were studied in comparison with the reference drug sodium diclofenac in 10 mg/kg dose. ED50 was calculated using Prozorovsky method.
# [2] = system: number of drinking actions despite electric shock; experiment: Anxiolytic activity, conflict situation model (drinking versus electric shock); settings: number of drinking actions despite electric shock, 30 min before test
# Procedure: Anxiolytic activity was assessed in a model of conflict situation based on the conflict of two reflexes (drinking and defensive) when drinking water from a water fountain. Anxiolytic activity was assessed by the number of drinking actions despite electric shock.
# (§1) Diazepam drug was used as the reference drug. All test compounds and the reference drug diazepam were administered in a suspension with Tween-80 in 5 mg/kg dose 30 min before the start of experiments.
# [3] = system: general movement activity of animals; experiment: General movement activity, open field test; settings: for General movement activity (5 mg/kg): open field 3 min, sum of rearings, transitions, explored holes, 30 min before test
# Procedure: General movement activity was assessed in an open field test. While the animals were in the open field (3 min), the number of rearings (vertical movement activity), transitions between squares (horizontal movement activity) and the number of explored holes (exploratory activity) were registered. The sum of these values is general movement activity.
# as §1
smiles,measurement,setting,value
COC(=O)CN1C(=O)C(Nc2ccc(C(F)(F)F)cc2)N=C(c2ccccc2F)c2cc([N+](=O)[O-])ccc21 (stereo not shown) [Compound 400],"Writhing inhibition, % of control in 1 mg/kg dose",[1],60%
same,Anxiolytic activity assessed using conflict situation method (5 mg/kg),[2],32.2 ± 3.3
same,General movement activity (5 mg/kg),[3],36.5 ± 3.3
COC(=O)CN1C(=O)C(Nc2cccc([N+](=O)[O-])c2)N=C(c2ccccc2)c2cc([N+](=O)[O-])ccc21 (stereo not shown) [Compound 282],"Writhing inhibition, % of control in 1 mg/kg dose",[1],59%
same,Anxiolytic activity assessed using conflict situation method (5 mg/kg),[2],44.7 ± 3.9
same,General movement activity (5 mg/kg),[3],19.0 ± 2.4
COC(=O)CN1C(=O)C(Nc2cccc([N+](=O)[O-])c2)N=C(c2ccccc2)c2cc(Cl)ccc21 (stereo not shown) [Compound 174],"Writhing inhibition, % of control in 1 mg/kg dose",[1],58%
same,Anxiolytic activity assessed using conflict situation method (5 mg/kg),[2],60.6 ± 7.0
same,General movement activity (5 mg/kg),[3],18.0 ± 2.4
COC(=O)CN1C(=O)C(Nc2ccc([N+](=O)[O-])cc2)N=C(c2ccccc2)c2cc(Cl)ccc21 (stereo not shown) [Compound 175],"Writhing inhibition, % of control in 1 mg/kg dose",[1],55%
same,Anxiolytic activity assessed using conflict situation method (5 mg/kg),[2],48.7 ± 3.6
same,General movement activity (5 mg/kg),[3],20.0 ± 1.0
COC(=O)CN1C(=O)C(Nc2cccc(C(F)(F)F)c2)N=C(c2ccccc2F)c2cc([N+](=O)[O-])ccc21 (stereo not shown) [Compound 399],"Writhing inhibition, % of control in 1 mg/kg dose",[1],70%
same,Anxiolytic activity assessed using conflict situation method (5 mg/kg),[2],44.4 ± 4.3
same,"Sedative properties (words, from general movement activity versus control)",[3]; 5 mg/kg,don't have sedative properties
same,General movement activity (5 mg/kg),[3],41.8 ± 4.3
COC(=O)CN1C(=O)C(Nc2ccc(Cl)cc2)N=C(c2ccccc2F)c2cc([N+](=O)[O-])ccc21 (stereo not shown) [Compound 364],"Writhing inhibition, % of control in 1 mg/kg dose",[1],64%
same,Anxiolytic activity assessed using conflict situation method (5 mg/kg),[2],26.2 ± 3.4
same,General movement activity (5 mg/kg),[3],34.5 ± 3.3
COC(=O)CN1C(=O)C(Nc2ccc([N+](=O)[O-])cc2)N=C(c2ccccc2)c2cc([N+](=O)[O-])ccc21 (stereo not shown) [Compound 283],"Writhing inhibition, % of control in 1 mg/kg dose",[1],54%
same,Anxiolytic activity assessed using conflict situation method (5 mg/kg),[2],45.1 ± 2.6
same,General movement activity (5 mg/kg),[3],22.0 ± 2.0
COC(=O)CN1C(=O)C(Nc2ccccc2C(F)(F)F)N=C(c2ccccc2F)c2cc([N+](=O)[O-])ccc21 (stereo not shown) [Compound 398],"Writhing inhibition, % of control in 1 mg/kg dose",[1],68%
same,Anxiolytic activity assessed using conflict situation method (5 mg/kg),[2],33.1 ± 3.2
same,General movement activity (5 mg/kg),[3],28.2 ± 3.3
COC(=O)CN1C(=O)C(Nc2ccccc2Br)N=C(c2ccccc2Cl)c2cc([N+](=O)[O-])ccc21 (stereo not shown) [Compound 326],"Writhing inhibition, % of control in 1 mg/kg dose",[1],62%
same,Anxiolytic activity assessed using conflict situation method (5 mg/kg),[2],45.1 ± 2.6
same,General movement activity (5 mg/kg),[3],22.0 ± 2.0
COC(=O)CN1C(=O)C(Nc2ccc(C(C)=O)cc2)N=C(c2ccccc2F)c2cc(Br)ccc21 (stereo not shown) [Compound 91],"Writhing inhibition, % of control in 1 mg/kg dose",[1],62%
same,Anxiolytic activity assessed using conflict situation method (5 mg/kg),[2],4.9 ± 2.2
same,General movement activity (5 mg/kg),[3],25.2 ± 2.1
COC(=O)CN1C(=O)C(Nc2ccc(F)cc2)N=C(c2ccccc2Cl)c2cc([N+](=O)[O-])ccc21 (stereo not shown) [Compound 319],"Writhing inhibition, % of control in 1 mg/kg dose",[1],61%
same,Anxiolytic activity assessed using conflict situation method (5 mg/kg),[2],18.1 ± 2.2
same,General movement activity (5 mg/kg),[3],27.2 ± 2.1
COC(=O)CN1C(=O)C(Nc2ccc([N+](=O)[O-])cc2)N=C(c2ccccc2)c2cc(OC(F)(F)F)ccc21 (stereo not shown) [Compound 229],"Writhing inhibition, % of control in 1 mg/kg dose",[1],59%
same,Anxiolytic activity assessed using conflict situation method (5 mg/kg),[2],38.7 ± 2.6
same,General movement activity (5 mg/kg),[3],19.0 ± 1.0
COC(=O)CN1C(=O)C(Nc2cccc(F)c2)N=C(c2ccccc2Cl)c2cc([N+](=O)[O-])ccc21 (stereo not shown) [Compound 318],"Writhing inhibition, % of control in 1 mg/kg dose",[1],65%
same,Anxiolytic activity assessed using conflict situation method (5 mg/kg),[2],19.2 ± 3.4
same,General movement activity (5 mg/kg),[3],28.5 ± 2.3
